Data reported in the supplement of paper PMC10307832.

Tests used:
Assay in all cases: relative viability (nuclei count vs DMSO), 5 days (fraction); higher = more cells survive
Dinaciclib = compound: CCc1cnn2c(NCc3ccc[n+]([O-])c3)cc(N3CCCC[C@H]3CCO)nc12 [Dinaciclib]
How it was run: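 Lung cancer cell lines were seeded into 1536-well plates, kept overnight at 37 °C and pinned with five library-drug doses (not always all listed) spaced by √10. After 5 days, nuclei were Hoechst-stained, imaged at 4× and counted with MetaXpress. Viability is treated-well nuclei over vehicle-well nuclei, taken as a median across plates. Plates needed control CV below 25% and at least one doubling.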

Dinaciclib + Alpelisib = compound: CCc1cnn2c(NCc3ccc[n+]([O-])c3)cc(N3CCCC[C@H]3CCO)nc12 [Dinaciclib] + Cc1nc(NC(=O)N2CCC[C@H]2C(N)=O)sc1-c1ccnc(C(C)(C)C(F)(F)F)c1 [Alpelisib] (partner 2 µM)
How it was run: (§1)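 For relative viability, nuclei counts in treated wells were divided by those in vehicle wells. Lung cancer cell lines had been pin-tool dosed in 1536-well plates the day after seeding and cultured for 5 days, then fixed and stained in one step (final 0.05% Triton X-100, 1% formaldehyde, 1 ug/ml Hoechst) and imaged at 4×. Doses were one drug alone or a fixed anchor-drug dose plus five library-drug doses (not always all listed) in √10 steps, and values are duplicate-plate medians.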

Dinaciclib + OSI-027 = compound: CCc1cnn2c(NCc3ccc[n+]([O-])c3)cc(N3CCCC[C@H]3CCO)nc12 [Dinaciclib] + COc1cccc2cc(-c3nc([C@H]4CC[C@H](C(=O)O)CC4)n4ncnc(N)c34)[nH]c12 [OSI-027] (partner 0.5 µM)
How it was run: as §1

Dinaciclib + Pemetrexed = compound: CCc1cnn2c(NCc3ccc[n+]([O-])c3)cc(N3CCCC[C@H]3CCO)nc12 [Dinaciclib] + Nc1nc2[nH]cc(CCc3ccc(C(=O)N[C@@H](CCC(=O)O)C(=O)O)cc3)c2c(=O)[nH]1 [Pemetrexed] (partner 0.2 µM)
How it was run: as §1

Dinaciclib + Luminespib = compound: CCc1cnn2c(NCc3ccc[n+]([O-])c3)cc(N3CCCC[C@H]3CCO)nc12 [Dinaciclib] + CCNC(=O)c1noc(-c2cc(C(C)C)c(O)cc2O)c1-c1ccc(CN2CCOCC2)cc1 [Luminespib] (partner 0.01 µM)
How it was run: as §1

Dinaciclib + Lapatinib = compound: CCc1cnn2c(NCc3ccc[n+]([O-])c3)cc(N3CCCC[C@H]3CCO)nc12 [Dinaciclib] + CS(=O)(=O)CCNCc1ccc(-c2ccc3ncnc(Nc4ccc(OCc5cccc(F)c5)c(Cl)c4)c3c2)o1 [Lapatinib] (partner 2 µM)
How it was run: as §1

Dinaciclib + Pictilisib = compound: CCc1cnn2c(NCc3ccc[n+]([O-])c3)cc(N3CCCC[C@H]3CCO)nc12 [Dinaciclib] + CS(=O)(=O)N1CCN(Cc2cc3nc(-c4cccc5[nH]ncc45)nc(N4CCOCC4)c3s2)CC1 [Pictilisib] (partner 1 µM)
How it was run: as §1

Dinaciclib + Linsitinib = compound: CCc1cnn2c(NCc3ccc[n+]([O-])c3)cc(N3CCCC[C@H]3CCO)nc12 [Dinaciclib] + C[C@]1(O)C[C@@H](c2nc(-c3ccc4ccc(-c5ccccc5)nc4c3)c3c(N)nccn32)C1 [Linsitinib] (partner 1 µM)
How it was run: as §1

Dinaciclib + Phenformin = compound: CCc1cnn2c(NCc3ccc[n+]([O-])c3)cc(N3CCCC[C@H]3CCO)nc12 [Dinaciclib] + N=C(N)NC(=N)NCCc1ccccc1 [Phenformin] (partner 250 µM)
How it was run: as §1

Dinaciclib + Foretinib = compound: CCc1cnn2c(NCc3ccc[n+]([O-])c3)cc(N3CCCC[C@H]3CCO)nc12 [Dinaciclib] + COc1cc2c(Oc3ccc(NC(=O)C4(C(=O)Nc5ccc(F)cc5)CC4)cc3F)ccnc2cc1OCCCN1CCOCC1 [Foretinib] (partner 0.25 µM)
How it was run: as §1

Dinaciclib + Crizotinib = compound: CCc1cnn2c(NCc3ccc[n+]([O-])c3)cc(N3CCCC[C@H]3CCO)nc12 [Dinaciclib] + C[C@@H](Oc1cc(-c2cnn(C3CCNCC3)c2)cnc1N)c1c(Cl)ccc(F)c1Cl [Crizotinib] (partner 1 µM)
How it was run: as §1

Dinaciclib + Dasatinib = compound: CCc1cnn2c(NCc3ccc[n+]([O-])c3)cc(N3CCCC[C@H]3CCO)nc12 [Dinaciclib] + Cc1nc(Nc2ncc(C(=O)Nc3c(C)cccc3Cl)s2)cc(N2CCN(CCO)CC2)n1 [Dasatinib] (partner 0.075 µM)
How it was run: as §1

Dinaciclib + Bortezomib = compound: CCc1cnn2c(NCc3ccc[n+]([O-])c3)cc(N3CCCC[C@H]3CCO)nc12 [Dinaciclib] + CC(C)C[C@H](NC(=O)[C@H](Cc1ccccc1)NC(=O)c1cnccn1)B(O)O [Bortezomib] (partner 0.002 µM)
How it was run: as §1

Dinaciclib + Tozasertib = compound: CCc1cnn2c(NCc3ccc[n+]([O-])c3)cc(N3CCCC[C@H]3CCO)nc12 [Dinaciclib] + Cc1cc(Nc2cc(N3CCN(C)CC3)nc(Sc3ccc(NC(=O)C4CC4)cc3)n2)n[nH]1 [Tozasertib] (partner 0.1 µM)
How it was run: as §1

NCI-H1563
relative viability (Dinaciclib; 0.009487 µM): 1.25
relative viability (Dinaciclib; 0.03 µM): 0.552
relative viability (Dinaciclib; 0.09487 µM): 0.314
relative viability (Dinaciclib; 0.3 µM): 0.286
relative viability (Dinaciclib + Alpelisib; first compound 0.009487 µM): 1.09
relative viability (Dinaciclib + Alpelisib; first compound 0.03 µM): 0.459
relative viability (Dinaciclib + Alpelisib; first compound 0.09487 µM): 0.388
relative viability (Dinaciclib + Alpelisib; first compound 0.3 µM): 0.302
relative viability (Dinaciclib + OSI-027; first compound 0.009487 µM): 0.795
relative viability (Dinaciclib + OSI-027; first compound 0.03 µM): 0.416
relative viability (Dinaciclib + OSI-027; first compound 0.09487 µM): 0.297
relative viability (Dinaciclib + OSI-027; first compound 0.3 µM): 0.27
relative viability (Dinaciclib + Pemetrexed; first compound 0.009487 µM): 0.704
relative viability (Dinaciclib + Pemetrexed; first compound 0.03 µM): 0.393
relative viability (Dinaciclib + Pemetrexed; first compound 0.09487 µM): 0.161
relative viability (Dinaciclib + Pemetrexed; first compound 0.3 µM): 0.13
relative viability (Dinaciclib + Luminespib; first compound 0.009487 µM): 0.526
relative viability (Dinaciclib + Luminespib; first compound 0.03 µM): 0.272
relative viability (Dinaciclib + Luminespib; first compound 0.09487 µM): 0.177
relative viability (Dinaciclib + Luminespib; first compound 0.3 µM): 0.128
relative viability (Dinaciclib + Lapatinib; first compound 0.009487 µM): 1.24
relative viability (Dinaciclib + Lapatinib; first compound 0.03 µM): 0.489
relative viability (Dinaciclib + Lapatinib; first compound 0.09487 µM): 0.411
relative viability (Dinaciclib + Lapatinib; first compound 0.3 µM): 0.423
relative viability (Dinaciclib + Pictilisib; first compound 0.009487 µM): 0.655
relative viability (Dinaciclib + Pictilisib; first compound 0.03 µM): 0.326
relative viability (Dinaciclib + Pictilisib; first compound 0.09487 µM): 0.296
relative viability (Dinaciclib + Pictilisib; first compound 0.3 µM): 0.284
relative viability (Dinaciclib + Linsitinib; first compound 0.009487 µM): 1.39
relative viability (Dinaciclib + Linsitinib; first compound 0.03 µM): 0.794
relative viability (Dinaciclib + Linsitinib; first compound 0.09487 µM): 0.331
relative viability (Dinaciclib + Linsitinib; first compound 0.3 µM): 0.376
relative viability (Dinaciclib + Phenformin; first compound 0.009487 µM): 0.745
relative viability (Dinaciclib + Phenformin; first compound 0.03 µM): 0.365
relative viability (Dinaciclib + Phenformin; first compound 0.09487 µM): 0.259
relative viability (Dinaciclib + Phenformin; first compound 0.3 µM): 0.236
relative viability (Dinaciclib + Foretinib; first compound 0.009487 µM): 1.14
relative viability (Dinaciclib + Foretinib; first compound 0.03 µM): 0.504
relative viability (Dinaciclib + Foretinib; first compound 0.09487 µM): 0.327
relative viability (Dinaciclib + Foretinib; first compound 0.3 µM): 0.291
relative viability (Dinaciclib + Crizotinib; first compound 0.009487 µM): 1.03
relative viability (Dinaciclib + Crizotinib; first compound 0.03 µM): 0.379
relative viability (Dinaciclib + Crizotinib; first compound 0.09487 µM): 0.34
relative viability (Dinaciclib + Crizotinib; first compound 0.3 µM): 0.303
relative viability (Dinaciclib + Dasatinib; first compound 0.009487 µM): 0.448
relative viability (Dinaciclib + Dasatinib; first compound 0.03 µM): 0.307
relative viability (Dinaciclib + Dasatinib; first compound 0.09487 µM): 0.133
relative viability (Dinaciclib + Dasatinib; first compound 0.3 µM): 0.123
relative viability (Dinaciclib + Bortezomib; first compound 0.009487 µM): 1.13
relative viability (Dinaciclib + Bortezomib; first compound 0.03 µM): 0.485
relative viability (Dinaciclib + Bortezomib; first compound 0.09487 µM): 0.368
relative viability (Dinaciclib + Bortezomib; first compound 0.3 µM): 0.387

NCI-H1623
relative viability (Dinaciclib; 0.009487 µM): 1.02
relative viability (Dinaciclib; 0.03 µM): 0.332
relative viability (Dinaciclib; 0.09487 µM): 0.26
relative viability (Dinaciclib; 0.3 µM): 0.196
relative viability (Dinaciclib + Tozasertib; first compound 0.009487 µM): 0.437
relative viability (Dinaciclib + Tozasertib; first compound 0.03 µM): 0.249
relative viability (Dinaciclib + Tozasertib; first compound 0.09487 µM): 0.207
relative viability (Dinaciclib + Tozasertib; first compound 0.3 µM): 0.193
relative viability (Dinaciclib + OSI-027; first compound 0.009487 µM): 0.397
relative viability (Dinaciclib + OSI-027; first compound 0.03 µM): 0.236
relative viability (Dinaciclib + OSI-027; first compound 0.09487 µM): 0.231
relative viability (Dinaciclib + OSI-027; first compound 0.3 µM): 0.2
relative viability (Dinaciclib + Luminespib; first compound 0.009487 µM): 0.428
relative viability (Dinaciclib + Luminespib; first compound 0.03 µM): 0.262
relative viability (Dinaciclib + Luminespib; first compound 0.09487 µM): 0.132
relative viability (Dinaciclib + Luminespib; first compound 0.3 µM): 0.144
relative viability (Dinaciclib + Phenformin; first compound 0.009487 µM): 0.609
relative viability (Dinaciclib + Phenformin; first compound 0.03 µM): 0.259
relative viability (Dinaciclib + Phenformin; first compound 0.09487 µM): 0.213
relative viability (Dinaciclib + Phenformin; first compound 0.3 µM): 0.225
relative viability (Dinaciclib + Foretinib; first compound 0.009487 µM): 0.831
relative viability (Dinaciclib + Foretinib; first compound 0.03 µM): 0.273
relative viability (Dinaciclib + Foretinib; first compound 0.09487 µM): 0.235
relative viability (Dinaciclib + Foretinib; first compound 0.3 µM): 0.234
relative viability (Dinaciclib + Dasatinib; first compound 0.009487 µM): 0.518
relative viability (Dinaciclib + Dasatinib; first compound 0.03 µM): 0.36
relative viability (Dinaciclib + Dasatinib; first compound 0.09487 µM): 0.207
relative viability (Dinaciclib + Dasatinib; first compound 0.3 µM): 0.231
